The target in assay [1] is T1, p75^NTR (Rattus norvegicus, UniProt P07174).
T1 construct: ^125I-BDNF crosslinking to p75^NTR receptors on nnr5 cells expressing p75^NTR; endogenous in cells; host or cells: PC12^nnr5 cells (TrkB-transfected)
T1 sequence (P07174 30-425): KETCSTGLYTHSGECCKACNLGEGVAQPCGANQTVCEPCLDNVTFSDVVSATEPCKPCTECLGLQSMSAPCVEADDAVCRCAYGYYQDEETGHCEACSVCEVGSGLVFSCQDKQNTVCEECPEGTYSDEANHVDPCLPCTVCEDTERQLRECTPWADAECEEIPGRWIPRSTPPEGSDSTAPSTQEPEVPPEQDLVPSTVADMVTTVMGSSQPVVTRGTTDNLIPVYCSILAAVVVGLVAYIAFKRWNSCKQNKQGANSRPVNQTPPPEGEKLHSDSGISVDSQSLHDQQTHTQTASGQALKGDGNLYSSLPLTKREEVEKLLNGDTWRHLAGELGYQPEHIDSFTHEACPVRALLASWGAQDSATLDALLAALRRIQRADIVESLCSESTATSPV
T1 sequence (P23560 129-247 partner): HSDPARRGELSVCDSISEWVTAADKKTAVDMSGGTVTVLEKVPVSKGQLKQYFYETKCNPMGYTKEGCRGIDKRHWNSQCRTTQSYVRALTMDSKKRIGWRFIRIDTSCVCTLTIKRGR
As to the kind of experiment: 125I-BDNF crosslinking to p75^NTR receptors on nnr5 cells. The assay is classed as binding. The conditions noted are these: 0.1 nM 125I-BDNF, 2 h at 4° C., read-out: IC50 (mean±S.E.M), inhibition of 125I-BDNF crosslinking to p75^NTR. The protocol:
Cells were incubated at 37° C. in 5% CO2. PC12 and PC12^nnr5 cells were maintained in RPMI-1640 medium supplemented with 10% fetal calf serum (FCS); cells were harvested by replacing the medium with calcium-magnesium-free balanced salt (Gey's) solution and incubating at 37° C. for 15 min. NIH-3T3 cells were grown in Dulbecco's modified Eagle medium: F12 containing 5% FCS; cells were harvested by replacing the medium with a 0.25% trypsin-0.53 mM ethylenediaminetetraacetic acid (EDTA) solution and incubating at 37° C. for 5 min.
The full-length TrkB cDNA was cloned into the CMV plasmid vector. Transient expression of TrkB in PC12^nnr5 cells was achieved by transfecting the cells with the TrkB expression vector using Lipofectamine Plus reagents (Invitrogen Canada Inc; Burlington, ON). PC12^nnr5 cells were passed through a syringe fitted with a 21-gauge needle several times to prevent clumping. In a 100 mm dish, 10×10^6 cells were plated and used for transfection the next day. […]
PC12 cells or TrkB-expressing PC12^nnr5 cells were recovered using Gey's solution, pelleted by centrifugation, and suspended in HKR (HEPES-Krebs Ringer Solution; [10 mM HEPES, 125 mM NaCl, 4.8 mM KCl, 1.3 mM CaCl2.2H2O, 1.2 mM MgSO4, 1.2 mM KH2PO4, 1 mg/mL BSA, 1 mg/mL glucose, pH 7.35]). […] Dried gels were registered to the autoradiograph and each labeled protein band was quantified by direct gamma counting. […]

Assay [2] addresses T2, p75^NTR receptors (PC12 cells) (Rattus norvegicus, UniProt P07174).
T2 construct: endogenous in cells; host or cells: PC12 cells
T2 sequence (P07174 30-425): T1 sequence (P07174 30-425)
T2 sequence (P23560 129-247 partner): T1 sequence (P23560 129-247 partner)
As to the kind of experiment: Basic screening assay: binding of 125I-BDNF to PC12 cells. Particulars: for 125I-BDNF Binding (% binding): Example 3 table; for activity at 50 µM: read-out: BDNF Activity % Maximal Binding. The procedure, abridged: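 4×10^6 PC12 cells incubated 2 h at 4° C, rotating, with 0.5 nM ^125I-BDNF (final) and compound at 50 μM, in duplicate or more. Bound ligand separated through 10% glycerol by centrifugation and counted by gamma counter; specific binding is Bmax minus NSB; inhibitors followed up for EC50.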

Assay [3] relates to p75^NTR receptors (PC12 cells). As to the kind of experiment: Basic screening assay: binding of 125I-NGF to PC12 cells. Particulars: for 125I-NGF Binding (% binding): Example 3 table; for NGF Activity % Maximal Binding: test compound 50 μM, 0.5 nM 125I-NGF, PC12 cells, 2 h at 4° C., specific binding as percent of control. The procedure, abridged:
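PC12 cells (4×10^6) incubated 2 h at 4° C with 0.5 nM 125I-NGF and test compound at 50 μM, rotating. Bound tracer pelleted through 10% glycerol and gamma-counted; specific binding expressed as percent of control after NSB subtraction.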

In assay [4] the test system is p75. As to the kind of experiment: Neurotrophin-receptor crosslinking assay, 125I-NGF (Example 3). The assay is classed as binding. The conditions noted are these: for 125I-NGF X-linking Sample (% binding): crosslinked sample counted on gamma counter; for 125I-NGF X-linking p75 band (% binding): p75 band counted on gamma counter. The protocol: (§1) PC12 cells or TrkB-expressing PC12^nnr5 cells were recovered using Gey's solution, pelleted by centrifugation, and suspended in HKR (HEPES-Krebs Ringer Solution; [10 mM HEPES, 125 mM NaCl, 4.8 mM KCl, 1.3 mM CaCl2.2H2O, 1.2 mM MgSO4, 1.2 mM KH2PO4, 1 mg/mL BSA, 1 mg/mL glucose, pH 7.35]). In a total volume of 1 mL, 1×10^6 cells were incubated, rotating, with 0.1 nM ^125I-BDNF or ^125I-NGF and additions (Compound A or Compound B at the indicated final concentrations) for 2 h at 4° C. At the conclusion of the binding reaction, a 20 μL volume of BS^3 was added to a final concentration of 0.4 mM and incubated, rocking, for an additional 30 min at room temperature. Cells were washed twice in TBS. For analysis of ^125I-NGF crosslinking to TrkA, ^125I-NGF crosslinking to p75^NTR, and ^125I-BDNF crosslinking to p75^NTR, samples were solubilized directly in SDS sample buffer and heated for 10 min at 95° C. For analysis of ^125I-BDNF crosslinking to TrkB, samples were immunoprecipitated with a pan-Trk antibody. All samples were electrophoresed on a 6% SDS-polyacrylamide gel, dried, and autoradiographed. Dried gels were registered to the autoradiograph and each labeled protein band was quantified by direct gamma counting. Non-linear regression analysis was performed by Prism 3.0 to generate concentration-effect curves and determine IC50 values.
(§2) The neurotrophin-receptor crosslinking assay described in Example 1 was used to determine binding of compounds 65, 3, 43 and 97 to ^125I-NGF and ^125I-BDNF.
(§3) ^1The p75 band was excised from the gel and cpm were determined on a gamma counter. Values were calculated as follows: [formula]
(§4) ^2An aliquot of the total crosslinked sample in SDS-sample buffer was counted on a gamma counter. Values were calculated as follows: [formula]

The test system of assay [5] is p75. As to the kind of experiment: Neurotrophin-receptor crosslinking assay, 125I-BDNF (Example 3). The assay is classed as binding. The conditions noted are these: for 125I-BDNF X-linking Sample (% binding): crosslinked sample counted on gamma counter; for 125I-BDNF X-linking p75 band (% binding): p75 band counted on gamma counter. The protocol:
as §1, §2, §3, §4

Molecules are shown by their SMILES. Where two headings read alike, the source gives them in different places. Bounds are passed on as bounds.

On to `COc1ccc(-c2ccc(C=C3C(=O)N(c4ccc(C(=O)O)cc4)N=C3C)o2)c([N+](=O)[O-])c1` (racemic) [Compound A, 4-{4-[5-(4-Methoxy-2-nitro-phenyl)-furan-2-ylmethylene]-3-methyl-5-oxo-4,5-dihydro-pyrazol-1-yl}-benzoic acid], for which the IC50 in assay [1] came out at 15.64 ± 0.05 µM.
For `Cc1cc(-c2ccc(C=C3C(=O)NC(=S)NC3=O)o2)c(C)c([N+](=O)[O-])c1` [Compound 3, 5-[5-(2,5-Dimethyl-3-nitrophenyl)furan-2-ylmethylene]-2-thioxo-dihydro-pyrimidine-4,6-dione], in assay [2], the “125I-BDNF Binding (% binding)” value is reported as “XXXXX (0 < XXXXX < 10)” and the activity at 50 µM lay in the range of 0 to 10%. For the same molecule, in assay [3], the “125I-NGF Binding (% binding)” value is recorded as “* (50 < *)”. The “NGF Activity % Maximal Binding” value in assay [3] (Table 1) is “* (50 < *)”. Further, in assay [4], the “125I-NGF X-linking Sample (% binding)” value is recorded as “* (50 < *)” and the “125I-NGF X-linking p75 band (% binding)” value was “* (50 < *)”. In assay [5], the “125I-BDNF X-linking Sample (% binding)” value is “XXXXX (0 < XXXXX < 10)” and the “125I-BDNF X-linking p75 band (% binding)” value is given as “XXXXX (0 < XXXXX < 10)”.
Take `O=C(O)c1cc(-c2ccc(/C=C3\NC(=O)N(c4cccc(Cl)c4)C3=O)o2)ccc1Cl` [Compound 43, 2-Chloro-5-{5-[1-(3-chlorophenyl)-2,5-dioxo-imidazolidin-4-ylidenemethyl]furan-2-yl}benzoic acid]: in assay [2], the “125I-BDNF Binding (% binding)” value was “XXX (20 < XXX < 30)”. In addition, the activity at 50 µM in assay [2] (Table 1, test compound 50 μM, 0.5 nM 125I-BDNF, PC12 cells, 2 h at 4° C., specific binding as percent of control) lay within 30 to 40%. In addition, in assay [3], the “125I-NGF Binding (% binding)” value is “* (50 < *)”. In assay [3] (Table 1), the “NGF Activity % Maximal Binding” value is listed as “* (50 < *)”. In assay [4], the “125I-NGF X-linking Sample (% binding)” value was “* (50 < *)” and the “125I-NGF X-linking p75 band (% binding)” value is on record as “* (50 < *)”. Besides, in assay [5], the “125I-BDNF X-linking Sample (% binding)” value is on record as “XXX (20 < XXX < 30)” and the “125I-BDNF X-linking p75 band (% binding)” value is on record as “XXXXX (0 < XXXXX < 10)”.
With `O=C1NC(=S)NC(=O)C1=Cc1ccc(-c2ccc(C(=O)O)c(Cl)c2)o1` [Compound 65, 2-Chloro-4-[5-(4,6-dioxo-2-thioxo-tetrahydro-pyrimidin-5-ylidenemethyl)furan-2-yl]benzoic acid], in assay [2], the “125I-BDNF Binding (% binding)” value is “XXXXX (0 < XXXXX < 10)” and the activity at 50 µM was in the range of 0 to 10%. For the same molecule, in assay [3], the “125I-NGF Binding (% binding)” value is recorded as “XXX (20 < XXX < 30)”. The “NGF Activity % Maximal Binding” value in assay [3] (Table 2) was “XXX (20 < XXX < 30)”. In addition, in assay [4], the “125I-NGF X-linking Sample (% binding)” value is recorded as “* (50 < *)” and the “125I-NGF X-linking p75 band (% binding)” value is given as “* (50 < *)”. In assay [5], the “125I-BDNF X-linking Sample (% binding)” value is recorded as “XXXXX (0 < XXXXX < 10)” and the “125I-BDNF X-linking p75 band (% binding)” value is given as “XXXXX (0 < XXXXX < 10)”.
On to `O=C1NC(=O)/C(=C\c2ccc(-c3ccc(Cl)c([N+](=O)[O-])c3)o2)S1` [Compound 97, 5-[5-(4-Chloro-3-nitrophenyl)furan-2-ylmethylene]-thiazolidine-2,4-dione], for which the “125I-BDNF Binding (% binding)” value in assay [2] is given as “* (50 < *)”. In addition, in assay [2] (Table 4, test compound 50 μM, 0.5 nM 125I-BDNF, PC12 cells, 2 h at 4° C., specific binding as percent of control), the activity at 50 µM is over 50%. The “125I-NGF Binding (% binding)” value in assay [3] is “* (50 < *)”. For the same molecule, the “NGF Activity % Maximal Binding” value in assay [3] (Table 4) is “* (50 < *)”. For the same molecule, in assay [4], the “125I-NGF X-linking Sample (% binding)” value is on record as “* (50 < *)” and the “125I-NGF X-linking p75 band (% binding)” value is on record as “* (50 < *)”. In assay [5], the “125I-BDNF X-linking Sample (% binding)” value was “* (50 < *)” and the “125I-BDNF X-linking p75 band (% binding)” value is listed as “XX (30 < XX < 40)”.
Take `NS(=O)(=O)c1ccc(-c2ccc(/C=C3/SC(=S)N(CCC(=O)O)C3=O)o2)cc1` [Compound B]: in assay [1], the half-inhibitory concentration (IC50) stood at 10.56 ± 0.05 µM.

The record behind these values is patent US20050282840A1, “Methods of modulating neurotrophin-mediated activity” (PainCeptor Pharma Corporation, priority 2004, published 2005).
